ChEMBL document CHEMBL3045592, “Studies of O,O-dimethyl α-(2,4-dichlorophenoxyacetoxy)ethylphosphonate (HW02) as a new herbicide. 1. Synthesis and herbicidal activity of HW02 and analogues as novel inhibitors of pyruvate dehydrogenase complex” (J Agric Food Chem, 2011)

Key:
Abutilon theophrasti [1] = assay: Post-emergence herbicidal activity against Abutilon theophrasti (velvetleaf) assessed as growth inhibition at 75 ai g/ha after 20 days by green house test; format: functional
Chenopodium album [2] = assay: Post-emergence herbicidal activity against Chenopodium album assessed as growth inhibition at 450 ai g/ha after 20 days by green house test; format: functional
Chenopodium album [3] = assay: Pre-emergence herbicidal activity against Chenopodium album assessed as growth inhibition at 450 ai g/ha after 20 days by green house test; format: functional
Abutilon theophrasti [4] = assay: Post-emergence herbicidal activity against Abutilon theophrasti (velvetleaf) assessed as growth inhibition at 450 ai g/ha after 20 days by green house test; format: functional
Digitaria sanguinalis [5] = assay: Post-emergence herbicidal activity against Digitaria sanguinalis (hairy crabgrass) assessed as growth inhibition at 75 ai g/ha after 20 days by green house test; format: functional
Digitaria sanguinalis [6] = assay: Pre-emergence herbicidal activity against Digitaria sanguinalis (hairy crabgrass) assessed as growth inhibition at 75 ai g/ha after 20 days by green house test; format: functional
Setaria viridis [7] = assay: Post-emergence herbicidal activity against Setaria viridis (green foxtail) assessed as growth inhibition at 150 ai g/ha after 20 days by green house test; format: functional
Echinochloa crus-galli [8] = assay: Pre-emergence herbicidal activity against Echinochloa crus-galli (barnyard grass) assessed as growth inhibition at 1500 ai g/ha after 20 days by green house test; format: functional
Digitaria sanguinalis [9] = assay: Post-emergence herbicidal activity against Digitaria sanguinalis (hairy crabgrass) assessed as growth inhibition at 150 ai g/ha after 20 days by green house test; format: functional
Chenopodium album [10] = assay: Pre-emergence herbicidal activity against Chenopodium album assessed as growth inhibition at 75 ai g/ha after 20 days by green house test; format: functional
Echinochloa crus-galli [11] = assay: Post-emergence herbicidal activity against Echinochloa crus-galli (barnyard grass) assessed as growth inhibition at 450 ai g/ha after 20 days by green house test; format: functional
Abutilon theophrasti [12] = assay: Pre-emergence herbicidal activity against Abutilon theophrasti (velvetleaf) assessed as growth inhibition at 450 ai g/ha after 20 days by green house test; format: functional
Setaria viridis [13] = assay: Pre-emergence herbicidal activity against Setaria viridis (green foxtail) assessed as growth inhibition at 450 ai g/ha after 20 days by green house test; format: functional
Amaranthus retroflexus [14] = assay: Pre-emergence herbicidal activity against Amaranthus retroflexus assessed as growth inhibition at 1500 ai g/ha after 20 days by green house test; format: functional
Echinochloa crus-galli [15] = assay: Post-emergence herbicidal activity against Echinochloa crus-galli (barnyard grass) assessed as growth inhibition at 1500 ai g/ha after 20 days by green house test; format: functional
[16] = biological target: T1, Pyruvate dehydrogenase complex (Pisum sativum) (UniProt P52902+P52904); assay: Inhibition of PDHc in Pisum sativum Zhongwan-2 (pea) shoot mitochondria assessed as decrease in rate of NADH formation using sodium pyruvate as substrate at 100 microg/g preincubated for 25 min before substrate addition measured after 1 min by spectrophotometric assay; format: protein-complex assay; conditions: Lathyrus oleraceus
Amaranthus retroflexus [17] = assay: Post-emergence herbicidal activity against Amaranthus retroflexus assessed as growth inhibition at 1500 ai g/ha after 20 days by green house test; format: functional
Setaria viridis [18] = assay: Post-emergence herbicidal activity against Setaria viridis (green foxtail) assessed as growth inhibition at 450 ai g/ha after 20 days by green house test; format: functional
Amaranthus spinosus [19] = assay: Pre-emergence herbicidal activity against Amaranthus spinosus assessed as growth inhibition at 450 ai g/ha after 20 days by green house test; format: functional
[20] = biological target: T1, Pyruvate dehydrogenase complex (Pisum sativum); assay: Inhibition of PDHc in Pisum sativum Zhongwan-2 (pea) shoot mitochondria assessed as decrease in rate of NADH formation using sodium pyruvate as substrate at 0.1 microg/g preincubated for 25 min before substrate addition measured after 1 min by spectrophotometric assay; format: protein-complex assay; conditions: Lathyrus oleraceus
Chenopodium album [21] = assay: Pre-emergence herbicidal activity against Chenopodium album assessed as growth inhibition at 150 ai g/ha after 20 days by green house test; format: functional
Amaranthus spinosus [22] = assay: Post-emergence herbicidal activity against Amaranthus spinosus assessed as growth inhibition at 450 ai g/ha after 20 days by green house test; format: functional
Medicago sativa [23] = assay: Pre-emergence herbicidal activity against Medicago sativa (alfalfa) assessed as growth inhibition at 1500 ai g/ha after 20 days by green house test; format: functional
[24] = system: Brassica rapa subsp. oleifera; assay: Post-emergence herbicidal activity against Brassica rapa subsp. oleifera Si Yue Man assessed as growth inhibition at 1500 ai g/ha after 20 days by green house test; format: functional
Setaria viridis [25] = assay: Pre-emergence herbicidal activity against Setaria viridis (green foxtail) assessed as growth inhibition at 150 ai g/ha after 20 days by green house test; format: functional
Chenopodium album [26] = assay: Post-emergence herbicidal activity against Chenopodium album assessed as growth inhibition at 150 ai g/ha after 20 days by green house test; format: functional
Digitaria sanguinalis [27] = assay: Pre-emergence herbicidal activity against Digitaria sanguinalis (hairy crabgrass) assessed as growth inhibition at 450 ai g/ha after 20 days by green house test; format: functional
[28] = biological target: T1, Pyruvate dehydrogenase complex (Pisum sativum); assay: Inhibition of PDHc in Pisum sativum Zhongwan-2 (pea) shoot mitochondria assessed as decrease in rate of NADH formation using sodium pyruvate as substrate at 1000 microg/g preincubated for 25 min before substrate addition measured after 1 min by spectrophotometric assay; format: protein-complex assay; conditions: Lathyrus oleraceus
[29] = system: Brassica rapa subsp. oleifera; assay: Pre-emergence herbicidal activity against Brassica rapa subsp. oleifera Si Yue Man assessed as growth inhibition at 1500 ai g/ha after 20 days by green house test; format: functional
Setaria viridis [30] = assay: Pre-emergence herbicidal activity against Setaria viridis (green foxtail) assessed as growth inhibition at 75 ai g/ha after 20 days by green house test; format: functional
[31] = biological target: T1, Pyruvate dehydrogenase complex (Pisum sativum); assay: Inhibition of PDHc in Pisum sativum Zhongwan-2 (pea) shoot mitochondria assessed as decrease in rate of NADH formation using sodium pyruvate as substrate at 1 microg/g preincubated for 25 min before substrate addition measured after 1 min by spectrophotometric assay; format: protein-complex assay; conditions: Lathyrus oleraceus
Amaranthus spinosus [32] = assay: Pre-emergence herbicidal activity against Amaranthus spinosus assessed as growth inhibition at 75 ai g/ha after 20 days by green house test; format: functional
Digitaria sanguinalis [33] = assay: Post-emergence herbicidal activity against Digitaria sanguinalis (hairy crabgrass) assessed as growth inhibition at 450 ai g/ha after 20 days by green house test; format: functional
Abutilon theophrasti [34] = assay: Post-emergence herbicidal activity against Abutilon theophrasti (velvetleaf) assessed as growth inhibition at 150 ai g/ha after 20 days by green house test; format: functional
Abutilon theophrasti [35] = assay: Pre-emergence herbicidal activity against Abutilon theophrasti (velvetleaf) assessed as growth inhibition at 150 ai g/ha after 20 days by green house test; format: functional
Brassica juncea = assay: Post-emergence herbicidal activity against Brassica juncea assessed as growth inhibition at 450 ai g/ha after 20 days by green house test; format: functional
Medicago sativa [36] = assay: Post-emergence herbicidal activity against Medicago sativa (alfalfa) assessed as growth inhibition at 1500 ai g/ha after 20 days by green house test; format: functional
Amaranthus spinosus [37] = assay: Post-emergence herbicidal activity against Amaranthus spinosus assessed as growth inhibition at 150 ai g/ha after 20 days by green house test; format: functional
Digitaria sanguinalis [38] = assay: Post-emergence herbicidal activity against Digitaria sanguinalis (hairy crabgrass) assessed as growth inhibition at 1500 ai g/ha after 20 days by green house test; format: functional

| Structure (SMILES) | growth inhibition (GI) (Abutilon theophrasti [1]) [%] | growth inhibition (GI) (Chenopodium album [2]) [%] | growth inhibition (GI) (Chenopodium album [3]) [%] | growth inhibition (GI) (Abutilon theophrasti [4]) [%] | growth inhibition (GI) (Digitaria sanguinalis [5]) [%] | growth inhibition (GI) (Digitaria sanguinalis [6]) [%] | growth inhibition (GI) (Setaria viridis [7]) [%] | growth inhibition (GI) (Echinochloa crus-galli [8]) [%] | growth inhibition (GI) (Digitaria sanguinalis [9]) [%] | growth inhibition (GI) (Chenopodium album [10]) [%] | growth inhibition (GI) (Echinochloa crus-galli [11]) [%] | growth inhibition (GI) (Abutilon theophrasti [12]) [%] | growth inhibition (GI) (Setaria viridis [13]) [%] | growth inhibition (GI) (Amaranthus retroflexus [14]) [%] | growth inhibition (GI) (Echinochloa crus-galli [15]) | inhibition [16] [%] | growth inhibition (GI) (Amaranthus retroflexus [17]) | growth inhibition (GI) (Setaria viridis [18]) [%] | growth inhibition (GI) (Amaranthus spinosus [19]) [%] | inhibition [20] [%] | also measured |
| --- | --- | --- | --- | --- | --- | --- | --- | --- | --- | --- | --- | --- | --- | --- | --- | --- | --- | --- | --- | --- | --- |
| O=C(O)COc1ccc(Cl)cc1Cl [2,4-DICHLOROPHENOXYACETIC ACID] | 72.5 | 100 | 0 | 100 | 0 | 0 | 0 | 75 | 0 | 0 | 35 | 0 | 67.5 | 90 | 50% | 27.8 | 90% | 0 | 0 | 8.8 | growth inhibition (GI) (Chenopodium album [21]): 0%; growth inhibition (GI) (Amaranthus spinosus [22]): 92.5%; growth inhibition (GI) (Medicago sativa [23]): 90%; growth inhibition (GI) [24]: 90%; growth inhibition (GI) (Setaria viridis [25]): 5.5%; growth inhibition (GI) (Chenopodium album [26]): 92.5%; growth inhibition (GI) (Digitaria sanguinalis [27]): 65%; inhibition [28]: 48.1%; growth inhibition (GI) [29]: 90%; growth inhibition (GI) (Setaria viridis [30]): 0%; inhibition [31]: 12.9%; growth inhibition (GI) (Amaranthus spinosus [32]): 0%; growth inhibition (GI) (Digitaria sanguinalis [33]): 0%; growth inhibition (GI) (Abutilon theophrasti [34]): 100%; growth inhibition (GI) (Abutilon theophrasti [35]): 0%; growth inhibition (GI) (Brassica juncea): 100%; growth inhibition (GI) (Medicago sativa [36]): 90%; growth inhibition (GI) (Amaranthus spinosus [37]): 92.5%; growth inhibition (GI) (Digitaria sanguinalis [38]): 50% |
| COP(=O)(OC)C(C)OC(=O)COc1ccc(Cl)cc1Cl (configuration not stated) [CLACYFOS] | 97.5 | 100 | 0 | 100 | 0 | 0 | 0 | 75 | 0 | 0 | 35 | 0 | 35 | 90 | 50% | 59 | 90% | 0 | 0 | 31.1 | growth inhibition (GI) (Chenopodium album [21]): 0%; growth inhibition (GI) (Amaranthus spinosus [22]): 100%; growth inhibition (GI) (Medicago sativa [23]): 90%; growth inhibition (GI) [24]: 90%; growth inhibition (GI) (Setaria viridis [25]): 0%; growth inhibition (GI) (Chenopodium album [26]): 96%; growth inhibition (GI) (Digitaria sanguinalis [27]): 45%; inhibition [28]: 73.8%; growth inhibition (GI) [29]: 90%; growth inhibition (GI) (Setaria viridis [30]): 0%; inhibition [31]: 44.3%; growth inhibition (GI) (Amaranthus spinosus [32]): 0%; growth inhibition (GI) (Digitaria sanguinalis [33]): 37.5%; growth inhibition (GI) (Abutilon theophrasti [34]): 100%; growth inhibition (GI) (Abutilon theophrasti [35]): 0%; growth inhibition (GI) (Brassica juncea): 100%; growth inhibition (GI) (Medicago sativa [36]): 90%; growth inhibition (GI) (Amaranthus spinosus [37]): 100%; growth inhibition (GI) (Digitaria sanguinalis [38]): 50% |
| COP(=O)(COC(=O)COc1cccc(C(F)(F)F)c1)OC | 27.5 | 82.5 | 0 | 87.5 | 0 | 0 | 0 | 50 | 0 | 0 | 0 | 0 | 35 | 50 | <=50% | 49.2 | <=50% | 0 | 0 | 11.5 | growth inhibition (GI) (Chenopodium album [21]): 0%; growth inhibition (GI) (Amaranthus spinosus [22]): 57.5%; growth inhibition (GI) (Medicago sativa [23]): 75%; growth inhibition (GI) [24]: 90%; growth inhibition (GI) (Setaria viridis [25]): 0%; growth inhibition (GI) (Chenopodium album [26]): 42.5%; growth inhibition (GI) (Digitaria sanguinalis [27]): 35%; inhibition [28]: 60.7%; growth inhibition (GI) [29]: 75%; growth inhibition (GI) (Setaria viridis [30]): 0%; inhibition [31]: 22.9%; growth inhibition (GI) (Amaranthus spinosus [32]): 0%; growth inhibition (GI) (Digitaria sanguinalis [33]): 0%; growth inhibition (GI) (Abutilon theophrasti [34]): 42.5%; growth inhibition (GI) (Abutilon theophrasti [35]): 0%; growth inhibition (GI) (Brassica juncea): 82.5%; growth inhibition (GI) (Medicago sativa [36]): 90%; growth inhibition (GI) (Amaranthus spinosus [37]): 0%; growth inhibition (GI) (Digitaria sanguinalis [38]): <=50% |
